Experimental data: patent publication US11712434B2, “Compound having anti-cancer effect, and preparation method therefor and use thereof” (3D MEDICINES (BEIJING) CO., LTD., priority 2016, dated 2023)
pIC50: −log10 of the molar value. Each block holds one compound with its values, some of them ahead of it.

Key:
Test in all cases: Cell proliferation assay (Alamar Blue)
Format in all cases: cell-based
22RV1 = 22RV1 tumor cell line, 6 days culture
Description: (§1) 1. Instruments and Materials • Thermo 311 CO2 incubator; Haier biosafety cabinet; Molecular Devices microplate reader; Xiangyi brand L530 desktop low speed centrifuge; Olympus IX51 inverted fluorescence microscope, DMEM, RPMI 1640, MEM, DMEM/F12 1:1 medium, Fetal bovine serum, 0.25% trypsin solution, phosphate buffer (Thermo Fisher Shanghai Co., Ltd.); sigma dimethyl sulfoxide (DMSO), resazurin; 54 commercial tumor cell lines (including 26 liver cancer cell lines). Experimental drugs: compounds 1-12 and active drug Linifanib; chemotherapeutic drug Doxorubicin (HY-15142; Shanghai Qianyuan Biomedical Technology Co., Ltd.).
(§2) 2. Experimental Methods • 2.1 Cultivation of Different Cell Lines • 54 cell lines were cultured in a culture medium containing fetal bovine serum and placed in a 5% CO2 incubator at 37° C. for incubation. The cells were all grown in an adherent state, and the growth was observed under an inverted microscope, and subculture was performed when the cell confluence rate reached 80%-90%. The proportion and quantity of passage were determined by experimental needs. The ratio of subculture of this cell line was generally 1:2^˜1:3. • 2.2 Inhibition Effect on the Proliferation of Different Tumor Cell Lines • Cell test: 54 cell lines in logarithmic growth phase were inoculated in 96-well culture plates at 500^˜1×10^4/well (the optimal seeding density of each cell line was determined in pre-experiment), After incubating at 37° C. for 4 h in a 5% CO2 humidification incubator, added 10 μL of compounds 1-12 or Linifanib to each well, and tested 9 drug concentration gradients for each compound (diluted from the highest concentration of the test by 3.16 times). The solubility of each compound was different at a starting concentration of 100 or 30 μM, respectively. The QC reference compound Doxorubicin was added simultaneously to each cell line test, and the final drug concentrations were 10, 3.16, 1, 0.31, 0.1, 0.03, 0.01, 0.003, and 0.001 μM, respectively. In addition, a positive control group (100% inhibition) and a negative control group (0% inhibition) were set at the same time. The drug group was repeated for 2 wells per concentration, and the positive control group and the negative control group were repeated for 6 wells. After the culture was continued for 6 days in the incubator, AlamarBlue test operation was followed; • AlamarBlue test procedure: Incubated with 10 μL of AlamarBlue reagent per well for 1-4 h, shook for 1-2 min, MD microplate reader EX: 560 nm, EM: 590 nm wavelength to measure fluorescence, recorded the results, calculated the cell inhibition rate of the compound of the invention. Cell inhibition rate (%)=(A0% inhibition−A administration)/(A0% inhibition−A100% inhibition)×100%, and then using the method of nonlinear regression using GraphPad Prism 5.0 or MATILAB software (usually using four parameters) to graph and obtain a drug dose response curve to obtain an IC50 value of the compound of the present invention acting on a cancer cell line.

Alexander cells = Alexander cells liver cancer cell line, 6 days culture
Description: as §1, §2

HEPG2 = HEPG2 liver cancer cell line, 6 days culture
Description: as §1, §2

HLF = HLF liver cancer cell line, 6 days culture
Description: as §1, §2

HT55 = HT55 tumor cell line, 6 days culture
Description: as §1, §2

HUH1 = HUH1 liver cancer cell line, 6 days culture
Description: as §1, §2

HUH6 = HUH6 liver cancer cell line, 6 days culture
Description: as §1, §2

HUH7 = HUH7 liver cancer cell line, 6 days culture
Description: as §1, §2

JHH1 = JHH1 liver cancer cell line, 6 days culture
Description: as §1, §2

JHH2 = JHH2 liver cancer cell line, 6 days culture
Description: as §1, §2

JHH6 = JHH6 liver cancer cell line, 6 days culture
Description: as §1, §2

JHH7 = JHH7 liver cancer cell line, 6 days culture
Description: as §1, §2

K562 = K562 tumor cell line, 6 days culture
Description: as §1, §2

KASUMI-1 = KASUMI-1 (leukemia cells), 6 days culture
Description: as §1, §2

LC-2-ad = LC-2-ad tumor cell line, 6 days culture
Description: as §1, §2

LNCAP-clone-FGC = LNCAP-clone-FGC tumor cell line, 6 days culture
Description: as §1, §2

MFM-223 = MFM-223 tumor cell line, 6 days culture
Description: as §1, §2

MG63 = MG63 tumor cell line, 6 days culture
Description: as §1, §2

NCI-H1703 = NCI-H1703 (lung cancer cells), 6 days culture
Description: as §1, §2

NCI-H2170 = NCI-H2170 tumor cell line, 6 days culture
Description: as §1, §2

NCI-H526 = NCI-H526 tumor cell line, 6 days culture
Description: as §1, §2

NCI-H716 = NCI-H716 tumor cell line, 6 days culture
Description: as §1, §2

SK-HEP-1 = SK-HEP-1 liver cancer cell line, 6 days culture
Description: as §1, §2

SNU387 = SNU387 liver cancer cell line, 6 days culture
Description: as §1, §2

SNU761 = SNU761 liver cancer cell line, 6 days culture
Description: as §1, §2

SNU886 = SNU886 liver cancer cell line, 6 days culture
Description: as §1, §2

SW620 = SW620 tumor cell line, 6 days culture
Description: as §1, §2

T.T = T.T tumor cell line, 6 days culture
Description: as §1, §2

pIC50 (22RV1; Homo sapiens, 144 h): 5.20 | pIC50 (HEPG2; Homo sapiens, 144 h): 6.01 | pIC50 (HUH1; Homo sapiens, HuH-1, 144 h): 5.41 | pIC50 (HUH6; Homo sapiens, HuH-6, 144 h): 4.36 | pIC50 (HUH7; Homo sapiens, Huh-7, 144 h): 5.65 | pIC50 (K562; Homo sapiens, 144 h): 4.84 | pIC50 (LNCAP-clone-FGC; Homo sapiens, 144 h): 4.83 | pIC50 (NCI-H1703; Homo sapiens, 144 h): 7.70 | pIC50 (NCI-H2170; Homo sapiens, 144 h): 5.37 | pIC50 (NCI-H526; Homo sapiens, 144 h): 5.16 | pIC50 (NCI-H716; Homo sapiens, 144 h): 5.29 | pIC50 (SK-HEP-1; Homo sapiens, SK-HEP1, 144 h): 4.83 | pIC50 (SNU387; Homo sapiens, SNU-387, 144 h): 4.70 | pIC50 (SNU761; 144 h): 5.06 | pIC50 (SNU886; SNU-886, 144 h): 5.21 | pIC50 (SW620; Homo sapiens, SW-620, 144 h): 5.46
SMILES: Cc1ccc(F)c(NC(=O)Nc2ccc(-c3cccc4[nH]nc(NC(=O)C[C@H](N)C(=O)O)c34)cc2)c1 [Compound 10]
pIC50 (Alexander cells; 144 h): 5.42 | pIC50 (HLF; 144 h): 5.31 | pIC50 (HT55; Homo sapiens, 144 h): 4.73 | pIC50 (JHH1; 144 h): 4.84 | pIC50 (JHH2; JHH-2, 144 h): 4.43 | pIC50 (JHH6; 144 h): 5.27 | pIC50 (JHH7; 144 h): 5.87 | pIC50 (KASUMI-1; Homo sapiens, 144 h): 8.00 | pIC50 (LC-2-ad; Homo sapiens, 144 h): 5.48 | pIC50 (MFM-223; Homo sapiens, 144 h): 5.58 | pIC50 (MG63; Homo sapiens, MG-63, 144 h): 5.71 | pIC50 (T.T; Homo sapiens, TT, 144 h): 5.13

pIC50 (22RV1): < 4.00 | pIC50 (HEPG2): 4.26 | pIC50 (HUH1): < 4.00 | pIC50 (HUH6): < 4.00 | pIC50 (HUH7): < 4.00 | pIC50 (K562): < 4.00 | pIC50 (LNCAP-clone-FGC): < 4.00 | pIC50 (NCI-H1703): 5.91 | pIC50 (NCI-H2170): < 4.00 | pIC50 (NCI-H526): < 4.00 | pIC50 (NCI-H716): 4.08 | pIC50 (SK-HEP-1): < 4.00 | pIC50 (SNU387): < 4.00 | pIC50 (SNU761): < 4.00 | pIC50 (SNU886): < 4.00 | pIC50 (SW620): < 4.00
SMILES: Cc1ccc(F)c(NC(=O)Nc2ccc(-c3cccc4[nH]nc(NC(=O)CCCCCNC(=O)C[C@H](N)C(=O)N[C@@H](CCC(=O)O)C(=O)O)c34)cc2)c1 [Compound 4]
pIC50 (Alexander cells): < 4.00 | pIC50 (HLF): < 4.00 | pIC50 (HT55): < 4.00 | pIC50 (JHH1): < 4.00 | pIC50 (JHH2): < 4.00 | pIC50 (JHH6): < 4.00 | pIC50 (JHH7): < 4.00 | pIC50 (KASUMI-1): 5.82 | pIC50 (LC-2-ad): < 4.00 | pIC50 (MFM-223): < 4.00 | pIC50 (MG63): < 4.00 | pIC50 (T.T): < 4.00
